The assay has as its system cells. The assay can be described thus: cell cycle effect (G2/M), appended experiments. The format is cell-based.

In the case of `N=C(N)c1ccc(OCCCCCOc2ccc(C(=N)N)cc2)cc1` [pentamidine], the “maintain cells in the G2/M cell cycle” value is on record as “maintain cells in the G2/M cell cycle”.

The record behind these values is patent publication US8207345B2, “Tetrahydroquinolines for use as modulators of the mitotic motor protein Eg5” (Merck Patent GmbH, priority 2005, dated 2012).
